For one assay, the target named is T1, α5β3γ2 GABAA receptors (Homo sapiens, UniProt P18507+P31644).
T1 construct: membranes
Briefly: Binding activity of test compounds on GABAAR ([3H]Ro15-1788 inhibition, Ltk cell membranes). The protocol: The binding was performed on Ltk cells stably expressing GABAA receptors: α1β1γ2, α2β3γ2, α3β3γ2 and α5β3γ2 (provided by Merck Co., NJ, USA). Cells were seeded in 100 mm culture plates in DMEM/F12 medium containing 10% serum and antibiotics in 5% C02 and allowed to grow for 1-2 days. GABAAR expression was then induced by dexamethasone as follows: 0.5 μM for 1 day for α5 containing and 2 μM for 3 days for α1, α2 and α3 containing GABAARs. After induction, cells were collected by scraping into Dulbecco's Phosphate buffered saline (DPBS, pH 7.4, Invitrogen, Carlsbad, Calif., USA) and centrifuged at 150×g for 10 min. The pellet was washed twice by re-suspension and centrifugation. The cell pellets from at least 5 different preps were combined, suspended in the binding assay buffer (50 mM KH2PO4; 1 mM EDTA; 0.2 M KCl, pH 7.4) and membranes prepared by sonication (3-5 times, 30 sec) using Branson Sonifier 150 (G.Heinmann, Germany). Protein content was determined using BCA assay (Bio-Rad Labs, Reinach, Switzerland) with Bovine Serum Albumin (Sigma Aldrich, St. Louis, Mo., USA) as the standard. Aliquots were prepared and stored at −20° C. for further use in binding assays.
Saturation binding curves were obtained by incubating membranes with increasing concentrations (0.01-8 nM) of [^3H]Ro15-1788 (Flumazepil, 75-85 Ci/mmol, PerkinElmer, MA, USA), with nonspecific binding measured in the presence of 10 μM diazepam.
All binding assays were performed for 1 h at 4° C. in assay buffer. The total assay volume was 0.5 ml containing 0.2 mg/ml protein for α5 and 0.4 mg/ml for α1, α2, and α3 containing GABAAR membranes. Incubations were terminated by filtration through GF/B filters using a 24-Cell Harvestor (Brandel, Gaithersburg, Md., USA) followed by 3 washes with ice-cold assay buffer. Filters were transferred to scintillation vials, 5 ml scintillation liquid added, vortex-mixed and kept in dark. Next day, radioactivity was obtained using a scintillation counter (Beckman Coulter, Brea, Calif., USA). All assays were performed in triplicate.
Saturation and inhibition curves were obtained using GraphPad Prism software (GraphPad Software, Inc., CA, USA).

A further assay concerns the target T2, GABAA receptors (α5β2γ2) (Homo sapiens, UniProt P18507+P31644).
T2 construct: expressed in transfected cells; host or cells: oocytes injected with a mix of alpha, beta and gamma cDNA (1:1:10 by weight)
Briefly: Positive allosteric modulator activity, potentiation of EC20 GABA current in oocytes. In kind it is cell-based. The settings on record: read-out: GABA α5 functional potentiation. The procedure: On day 1, 1 ng/32 nL of GABAA […] cDNA was injected into one oocyte. Test starts on day 2. The cDNA injected to the oocytes was a mix of alpha, beta and gamma, their ratio is 1:1:10 (by weight) and the total weight of the mixed 3 subunits to be injected in one oocyte was 1 ng in 32 nl volume. The injected oocytes can also be tested on day 3. In such case, the cDNA amount injected to the oocytes should be reduced by 20%.
1). 8 oocytes were placed in 8 chambers of OpusXpress and superfused with Modified Barth's Saline (MBS) at 3 mL/min. Glass electrodes back-filled with 3M KCl (0.5-3 megaohms) were used.
3). […] Oocytes were washed with MBS for 5-10 min.
2). […] Divide Itest by IGABA to obtain potentiation (%).
3). Discard all tested oocytes, new oocytes were used and the above steps 1) and 2) were repeated to test second concentration of the same compound. Each oocyte was used for only one concentration test for a single test compound. The steps were repeated for other test compounds.

Our source for the Ki and activation values is patent publication US11142529B2 (priority 2013, dated 2021).

For orientation: Ki means a dissociation constant, usually derived from enzyme kinetics or from competition with a known ligand. A lower Ki goes with higher affinity.

T2 sequence (P31644 32-462): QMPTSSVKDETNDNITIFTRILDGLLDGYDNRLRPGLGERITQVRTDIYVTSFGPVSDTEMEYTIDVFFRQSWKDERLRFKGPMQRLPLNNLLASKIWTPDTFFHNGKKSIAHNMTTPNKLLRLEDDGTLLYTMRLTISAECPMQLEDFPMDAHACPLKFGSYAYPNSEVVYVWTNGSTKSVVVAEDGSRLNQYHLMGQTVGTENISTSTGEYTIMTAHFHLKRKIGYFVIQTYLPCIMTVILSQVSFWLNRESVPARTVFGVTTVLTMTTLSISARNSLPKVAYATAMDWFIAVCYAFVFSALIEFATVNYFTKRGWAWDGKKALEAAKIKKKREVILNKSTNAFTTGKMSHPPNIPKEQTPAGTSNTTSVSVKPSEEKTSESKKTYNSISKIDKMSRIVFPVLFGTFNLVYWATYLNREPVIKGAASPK
T2 sequence (P47870 25-512 partner limits assumed): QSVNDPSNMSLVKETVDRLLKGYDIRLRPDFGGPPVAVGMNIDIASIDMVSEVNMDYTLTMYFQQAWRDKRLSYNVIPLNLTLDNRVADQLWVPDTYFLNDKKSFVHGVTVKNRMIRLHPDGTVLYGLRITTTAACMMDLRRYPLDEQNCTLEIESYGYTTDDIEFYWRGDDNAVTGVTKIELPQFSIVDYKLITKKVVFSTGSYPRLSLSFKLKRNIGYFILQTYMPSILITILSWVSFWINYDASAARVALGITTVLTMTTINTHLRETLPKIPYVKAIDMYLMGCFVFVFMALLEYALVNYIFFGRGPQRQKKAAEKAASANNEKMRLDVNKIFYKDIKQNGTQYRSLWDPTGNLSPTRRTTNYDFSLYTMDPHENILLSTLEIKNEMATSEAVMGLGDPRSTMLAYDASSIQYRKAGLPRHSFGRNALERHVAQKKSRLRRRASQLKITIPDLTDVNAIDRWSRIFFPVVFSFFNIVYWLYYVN
T2 sequence (P18507 40-475): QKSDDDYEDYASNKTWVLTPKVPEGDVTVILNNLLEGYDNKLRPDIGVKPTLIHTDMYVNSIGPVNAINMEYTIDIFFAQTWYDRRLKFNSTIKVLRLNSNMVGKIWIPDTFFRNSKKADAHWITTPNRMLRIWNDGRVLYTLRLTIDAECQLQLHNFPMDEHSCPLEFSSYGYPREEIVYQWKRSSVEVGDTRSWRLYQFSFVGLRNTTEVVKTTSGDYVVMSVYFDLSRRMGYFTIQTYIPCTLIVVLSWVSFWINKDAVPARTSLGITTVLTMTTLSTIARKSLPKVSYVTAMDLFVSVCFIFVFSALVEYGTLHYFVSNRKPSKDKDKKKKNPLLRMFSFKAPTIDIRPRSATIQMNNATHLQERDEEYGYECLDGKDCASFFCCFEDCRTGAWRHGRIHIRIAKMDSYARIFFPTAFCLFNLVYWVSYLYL
T1 sequence (P31644 32-462): as the sequence (P31644 32-462) above
T1 sequence (P28472 26-473 partner): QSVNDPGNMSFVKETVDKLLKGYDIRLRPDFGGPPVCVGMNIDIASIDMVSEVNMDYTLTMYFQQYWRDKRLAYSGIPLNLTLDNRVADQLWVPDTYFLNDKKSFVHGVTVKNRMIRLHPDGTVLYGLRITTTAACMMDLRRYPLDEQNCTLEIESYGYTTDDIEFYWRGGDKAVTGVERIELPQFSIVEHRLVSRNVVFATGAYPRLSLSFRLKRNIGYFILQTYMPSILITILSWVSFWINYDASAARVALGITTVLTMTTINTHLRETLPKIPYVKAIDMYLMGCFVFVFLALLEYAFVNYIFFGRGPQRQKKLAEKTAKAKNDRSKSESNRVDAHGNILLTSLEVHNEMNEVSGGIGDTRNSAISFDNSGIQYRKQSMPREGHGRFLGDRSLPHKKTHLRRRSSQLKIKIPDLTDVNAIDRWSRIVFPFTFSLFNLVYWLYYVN
T1 sequence (P18507 40-475): as the sequence (P18507 40-475) above

With `CCOC(=O)c1ncn2c1Cc1c(C)nnn1-c1cc(OC)ccc1-2` [Compound 1], at α5β3γ2 GABAA receptors, the Ki is less than 0.099 µM. The activation at 0.1 µM at GABAA receptors (α5β2γ2) was in the range of 20 to 49%.
At α5β3γ2 GABAA receptors, `CCOC(=O)c1ncn2c1Cc1c(C)nnn1-c1cc(F)ccc1-2` [Compound 2] yielded a Ki of less than 0.099 µM. Further, at GABAA receptors (α5β2γ2), the activation at 0.1 µM lay within 20 to 49%.
Regarding `CCOC(=O)c1ncn2c1Cc1c(C)nnn1-c1ccccc1-2` [Compound 3], the Ki at α5β3γ2 GABAA receptors is less than 0.099 µM.
Compound `CCOC(=O)c1ncn2c1Cc1c(Cc3ccccc3)nnn1-c1cc(OC)ccc1-2` [Compound 4] had a Ki on α5β3γ2 GABAA receptors of less than 0.099 µM.
The same measure, in the same setting: to `CCOC(=O)c1ncn2c1Cc1c(Cc3ccccc3)nnn1-c1ccccc1-2` [Compound 5] belongs less than 0.099 µM.
The same measure, in the same setting: to `CCOC(=O)c1ncn2c1Cc1c(Cc3ccccc3)nnn1-c1cc(F)ccc1-2` [Compound 6] belongs less than 0.099 µM.
Still for that read-out and setting: to `CCOC(=O)c1ncn2c1Cc1c(C)cnn1-c1cc(OC)ccc1-2` [Compound 7] belongs less than 0.099 µM.
`CCOC(=O)c1ncn2c1Cc1c(Cc3ccccc3)cnn1-c1cc(OC)ccc1-2` [Compound 8] yielded an inhibition constant (Ki) on α5β3γ2 GABAA receptors of less than 0.099 µM.
As for `CCOC(=O)c1ncn2c1Cc1c(COc3ccccc3)nnn1-c1cc(OC)ccc1-2` [Compound 9], the Ki at α5β3γ2 GABAA receptors was less than 0.099 µM. Further, the activation at 0.1 µM on GABAA receptors (α5β2γ2) fell in the range of 20 to 49%.
At α5β3γ2 GABAA receptors, `CCOC(=O)c1ncn2c1Cc1c(COc3ccc(F)cc3)nnn1-c1cc(OC)ccc1-2` [Compound 10] yielded a Ki of less than 0.099 µM.
As to `CCOC(=O)c1ncn2c1Cc1c(COc3cccc(OC)c3)nnn1-c1cc(OC)ccc1-2` [Compound 11], the Ki on α5β3γ2 GABAA receptors is less than 0.099 µM. Moreover, the activation at 0.1 µM on GABAA receptors (α5β2γ2) was 20 to 49%.
On to `CCOC(=O)c1ncn2c1Cc1c(COc3ccc(C)cc3C)nnn1-c1cc(OC)ccc1-2` [Compound 12], for which the Ki at α5β3γ2 GABAA receptors is less than 0.099 µM.
As to `CCOC(=O)c1ncn2c1Cc1c(Cc3ccc(C)cc3)nnn1-c1cc(F)ccc1-2` [Compound 44], the Ki on α5β3γ2 GABAA receptors was less than 0.099 µM.
As for `CCOC(=O)c1ncn2c1Cc1c(Cc3ccc(Cl)cc3)nnn1-c1cc(F)ccc1-2` [Compound 45], on α5β3γ2 GABAA receptors, the Ki was less than 0.099 µM. Also, on GABAA receptors (α5β2γ2), the activation at 0.1 µM was 20 to 49%.
`CCOC(=O)c1ncn2c1Cc1c(Cc3ccc(Cl)cc3)nnn1-c1ccccc1-2` [Compound 47] came in with a Ki at α5β3γ2 GABAA receptors of less than 0.099 µM.
For the compound `CCOC(=O)c1ncn2c1Cc1c(CN3CCCC3)nnn1-c1cc(OC)ccc1-2` [Compound 48], the Ki at α5β3γ2 GABAA receptors is less than 0.099 µM. Moreover, the activation at 0.1 µM on GABAA receptors (α5β2γ2) fell in the range of 20 to 49%.
On to `CCOC(=O)c1ncn2c1Cc1c(CN3CCOCC3)nnn1-c1cc(OC)ccc1-2` [Compound 49], for which the Ki at α5β3γ2 GABAA receptors is less than 0.099 µM.
On the same count and under the same terms, the figure for `CCOC(=O)c1ncn2c1Cc1c(CN(C)Cc3ccccc3)nnn1-c1cc(OC)ccc1-2` [Compound 51] is less than 0.099 µM; for `CCOC(=O)c1ncn2c1Cc1c(Cc3cccc(Cl)c3)nnn1-c1cc(OC)ccc1-2` [Compound 52] it is less than 0.099 µM; for `CCOC(=O)c1ncn2c1Cc1c(Cc3cccc(C#N)c3)nnn1-c1cc(OC)ccc1-2` [Compound 53] it is less than 0.099 µM.
With `CCOC(=O)c1ncn2c1Cn1c(COc3ccccc3)nnc1-c1cc(OC)ccc1-2` [Compound 55], on α5β3γ2 GABAA receptors, the Ki is less than 0.099 µM. In addition, the activation at 0.1 µM at GABAA receptors (α5β2γ2) fell in the range of 20 to 49%.
The compound `CCOC(=O)c1ncn2c1Cn1c(COc3ccc(F)cc3)nnc1-c1cc(OC)ccc1-2` [Compound 56] displayed a Ki on α5β3γ2 GABAA receptors of less than 0.099 µM.
In the case of `CCOC(=O)c1ncn2c1Cn1c(COC)nnc1-c1cc(OC)ccc1-2` [Compound 103], the Ki on α5β3γ2 GABAA receptors was less than 0.099 µM.
On the same count and under the same terms, to `CCOC(=O)c1ncn2c1Cn1c(Oc3ccccc3)nnc1-c1cc(OC)ccc1-2` [Compound 104] belongs less than 0.099 µM; to `CCOC(=O)c1ncn2c1Cn1c(Oc3cccc(OC)c3)nnc1-c1cc(OC)ccc1-2` [Compound 105], less than 0.099 µM; to `CCOC(=O)c1ncn2c1Cn1c(Br)nnc1-c1cc(OC)ccc1-2` [Compound 106], less than 0.099 µM.
The same measure, in the same setting: the figure for `CCOC(=O)c1ncn2c1Cc1c(COc3ccccc3)nnn1-c1cc(F)ccc1-2` [Compound 107] is less than 0.099 µM; for `CCOC(=O)c1ncn2c1Cc1c(Cc3ccccc3Cl)nnn1-c1cc(OC)ccc1-2` [Compound 108] it is less than 0.099 µM.
As for `Cc1noc(-c2ncn3c2Cc2c(Cc4ccccc4)nnn2-c2cc(F)ccc2-3)n1` [Compound 109], on α5β3γ2 GABAA receptors, the inhibition constant (Ki) was less than 0.099 µM. For the same compound, at GABAA receptors (α5β2γ2), the activation at 0.1 µM was 20 to 49%.
As to `Cc1noc(-c2ncn3c2Cc2c(C)nnn2-c2cc(F)ccc2-3)n1` [Compound 110], the activation at 0.1 µM on GABAA receptors (α5β2γ2) was in the range of 20 to 49%.
For `CCOC(=O)c1ncn2c1Cc1c(Cc3cccnc3)nnn1-c1cc(C)ccc1-2` [Compound 111], on α5β3γ2 GABAA receptors, the Ki is less than 0.099 µM. Besides, the activation at 0.1 µM at GABAA receptors (α5β2γ2) lay within 20 to 49%.
For the compound `Cc1nnn2c1Cc1c(C(=O)OC(C)C)ncn1-c1ccc(F)cc1-2` [Compound 112], the Ki at α5β3γ2 GABAA receptors is less than 0.099 µM.
In the case of `Cc1nnn2c1Cc1c(C(=O)OCC(C)(C)C)ncn1-c1ccc(F)cc1-2` [Compound 113], on GABAA receptors (α5β2γ2), the activation at 0.1 µM is more than 50%.
Consider `Cc1nnn2c1Cc1c(C(=O)OCC(F)(F)F)ncn1-c1ccc(F)cc1-2` [Compound 114], for which the Ki at α5β3γ2 GABAA receptors is less than 0.099 µM. Also, on GABAA receptors (α5β2γ2), the activation at 0.1 µM is more than 50%.
On the same counts, the results for `COc1ccc2c(c1)-c1nnc(COc3ccccc3)n1Cc1c(-c3nc(C)no3)ncn1-2` [Compound 118] are less than 0.099 µM and 20 to 49%.
On the same counts, the results for `COc1ccc2c(c1)-c1nnc(COc3ccccc3)n1Cc1c(C(=O)OC(C)C)ncn1-2` [Compound 120] are less than 0.099 µM and 20 to 49%.
`COc1ccc2c(c1)-c1nnc(COc3ccccc3)n1Cc1c(C#N)ncn1-2` [Compound 122]: at α5β3γ2 GABAA receptors, the Ki was less than 0.099 µM.
At α5β3γ2 GABAA receptors, `Cc1noc(-c2ncn3c2Cc2c(C)nnn2-c2ccccc2-3)n1` [Compound 126] came in with a Ki of less than 0.099 µM. In addition, at GABAA receptors (α5β2γ2), the activation at 0.1 µM was in the range of 20 to 49%.
Regarding `Cc1nc(-c2ncn3c2Cc2c(C)nnn2-c2ccccc2-3)no1` [Compound 127], on α5β3γ2 GABAA receptors, the Ki was less than 0.099 µM. Moreover, the activation at 0.1 µM on GABAA receptors (α5β2γ2) was in the range of 20 to 49%.
`COCc1nnc2n1Cc1c(-c3nc(C)no3)ncn1-c1ccc(OC)cc1-2` [Compound 128]: on α5β3γ2 GABAA receptors, the Ki was less than 0.099 µM. The activation at 0.1 µM at GABAA receptors (α5β2γ2) is 20 to 49%.
The compound `COCc1nnc2n1Cc1c(Br)ncn1-c1ccc(OC)cc1-2` [Compound 129] registered a Ki on α5β3γ2 GABAA receptors of less than 0.099 µM.
`Cc1nnn2c1Cc1c(-c3noc(C(C)C)n3)ncn1-c1ccccc1-2` [Compound 133]: the Ki on α5β3γ2 GABAA receptors was less than 0.099 µM.
On the same count and under the same terms, the figure for `Cc1nnn2c1Cc1c(-c3noc(C(F)(F)F)n3)ncn1-c1ccc(F)cc1-2` [Compound 150] is less than 0.099 µM; for `Cc1nnn2c1Cc1c(-c3ncon3)ncn1-c1ccc(F)cc1-2` [Compound 151] it is less than 0.099 µM; for `CC(C)OC(=O)c1ncn2c1Cn1c(COc3ccccc3)nnc1-c1cc(F)ccc1-2` [Compound 156] it is less than 0.099 µM.
Same read-out and setting: the figure for `N#Cc1ncn2c1Cn1c(COc3ccccc3)nnc1-c1cc(F)ccc1-2` [Compound 157] is less than 0.099 µM; for `Fc1ccc2c(c1)-c1nnc(COc3ccccc3)n1Cc1c(-c3noc(C(F)(F)F)n3)ncn1-2` [Compound 159] it is less than 0.099 µM; for `C#Cc1ncn2c1Cc1c(C)nnn1-c1ccccc1-2` [Compound 161] it is less than 0.099 µM.
Same read-out and setting: to `COCc1nnc2n1Cc1c(-c3noc(C)n3)ncn1-c1ccc(OC)cc1-2` [Compound 164] belongs less than 0.099 µM; to `COc1ccc2c(c1)-c1nnc(COCc3ccccc3)n1Cc1c(-c3noc(C)n3)ncn1-2` [Compound 165], less than 0.099 µM.
At α5β3γ2 GABAA receptors, `COc1ccc2c(c1)-c1nnc(COCc3ccccc3)n1Cc1c(C#N)ncn1-2` [Compound 166] gave a Ki of less than 0.099 µM.
Same read-out and setting: to `COc1ccc2c(c1)-n1nnc(C)c1Cc1c(-c3nc(C)no3)ncn1-2` [Compound 167] belongs less than 0.099 µM.
The same measure, in the same setting: to `COc1ccc2c(c1)-n1nnc(COc3cccc(F)c3)c1Cc1c(-c3noc(C)n3)ncn1-2` [Compound 168] belongs less than 0.099 µM.
On the same count and under the same terms, the figure for `COCc1nnc2n1Cc1c(-c3noc(C(C)C)n3)ncn1-c1ccc(OC)cc1-2` [Compound 169] is less than 0.099 µM.
